The structures appear in SMILES notation. Active and inactive are the calls of the source. The rule behind the calls is not given here.

For assay [1], the system named is Mus musculus. As to the kind of experiment: Antidiabetic activity in Mus musculus Kunming (mouse) alloxan-induced diabetic model assessed as reduction of 16 hr fasting plasma glucose level at 10 mg/kg, po qd for 7 days (reference value: 6.11 +/- 0.64 mmol/l). The format is functional.
In assay [2] the test system is Mus musculus. The assay can be described thus: Hypoglycemic activity in Mus musculus Kunming (mouse) assessed as reduction of 16 hr fasting plasma glucose level at 2.4 mg/kg, po qd for 7 days by oral glucose tolerance test (reference value: 6.20 +/- 0.63 mmol/l). It counts as functional.
Assay [3] has as its system Mus musculus. The assay can be described thus: Hypoglycemic activity in Mus musculus Kunming (mouse) assessed as reduction of AUC of plasma glucose level at 5 to 10 mg/kg, po qd for 7 days by oral glucose tolerance test. It counts as functional, organism-based.
The subject of assay [4] is Mus musculus. As to the kind of experiment: Antidiabetic activity in Mus musculus Kunming (mouse) alloxan-induced diabetic model assessed as reduction of 16 hr fasting plasma glucose level at 5 mg/kg, po qd for 7 days (reference value: 6.11 +/- 0.64 mmol/l). It counts as functional.
The subject of assay [5] is Mus musculus. As to the kind of experiment: Hypoglycemic activity in Mus musculus Kunming (mouse) assessed as reduction of 16 hr fasting plasma glucose level at 5 mg/kg, po qd for 7 days by oral glucose tolerance test (reference value: 6.20 +/- 0.63 mmol/l). The format is functional.
Assay [6] deals with Mus musculus. The assay can be described thus: Hypoglycemic activity in Mus musculus Kunming (mouse) assessed as reduction of 16 hr fasting plasma glucose level at 10 mg/kg, po qd for 7 days by oral glucose tolerance test (reference value: 6.20 +/- 0.63 mmol/l). It counts as functional.

With `CN(C)C(=N)NC(=N)N` [METFORMIN], the Activity in assay [1] stood at 9.98 mmol/L.
In the case of `Cc1ccc(S(=O)(=O)NC(=O)NN2CC3CCCC3C2)cc1` (configuration not stated) [GLICLAZIDE], the Activity in assay [2] is given as 4.69 mmol/L.
Turning to `CC1=C(/C=C/C(C)=C/C=C/C(C)=C/C=C/C=C(C)/C=C/C=C(C)/C=C/C2=C(C)C(=O)[C@@H](O)CC2(C)C)C(C)(C)C[C@H](O)C1=O` [ASTAXANTHIN], in assay [3], the result was Active. Moreover, the Activity in assay [4] worked out at 13.03 mmol/L; in assay [1], 10.11 mmol/L; in assay [5], 6.14 mmol/L; in assay [6], 6.02 mmol/L.

These data come from ChEMBL document CHEMBL3045101, “Hypoglycemic effect of astaxanthin from shrimp waste in alloxan-induced diabetic mice” (2012).
